Laboratory results reported in patent US9532962B2, “Medium-chain length fatty acids and glycerides as nephroprotection agents” (priority 2007, dated 2017).
Entries after “also recorded” stand apart in the source; their conditions may differ.

Columns and labels:
C57B1/6 mice = assay: Doxorubicin-induced nephrotoxicity model; assay type: in vivo; conditions: for histological kidney lesions score: 10 mg/kg i.v. at day 0; for histological kidney lesions score at the tubular level induced by doxorubicin / serum urea induced by doxorubicin: oral; for serum creatinine induced by doxorubicin: FIG. 9; for serum urea induced by doxorubicin: FIG. 10
Protocol: C57B1/6 mice (6-10 week-old) were treated with sodium caprate prophylacticly from day −3 to day 10 or treated therapeutically from day 1 to 10. Nephrotoxicity was induced by an intravenous injection of 10 mg/kg of doxorubicin at day 0, Serum creatinine and urea were monitored at day 4, 7 and 11.

[1] = test system: 5/6 nephrectomized (Nx) rats; assay: Kidney protection in 5/6 nephrectomized (Nx) rat model; assay type: in vivo, Wistar rats
Protocol: (§1) Male 6 week-old Wistar rats were subjected to 5/6 nephrectomy or sham operations. Under ketamine anesthesia (60 to 100 mg/kg, i.p.), renal ablation was achieved by removing two-thirds of the left kidney followed by a right unilateral nephrectomy 7 days later. Sham rats underwent exposition of the kidneys and removal of the perirenal fat. Twenty-one days after the first operation, rats were assigned in the study if the serum creatinine was greater than 125 μmol/L indicating a dysfunction of the kidney. Animals that underwent the sham operation were given vehicle (saline) and were used as controls. Nx animals were divided in groups receiving the vehicle or sodium caprate. Saline or sodium caprate was given by gastric gavage once daily for 35 days. Serum creatinine was measured weekly in order to assess the severity of this end-stage renal disease model. Rats were sacrificed at day 63.

[2] = test system: 5/6 nephrectomized (Nx) rats; assay: Heart protection (blood pressure) in 5/6 nephrectomized (Nx) rat model; assay type: in vivo; conditions: RTBP 2000, FIG. 8
Protocol: as §1

[3] = prophylactic (pre-doxorubicin) treatment
[4] = therapeutic (post-doxorubicin) treatment

Row | SMILES | histological lesions in affected tubular regions (micrographs) (C57B1/6 mice; 10 mg/kg i.v. at day 0, 400×) | histological kidney lesions score (C57B1/6 mice; day 7 and 11, FIG. 11) | histological kidney lesions score (C57B1/6 mice; day 12, FIG. 13) | kidney structure (density, glomerulus and tubular structure), histological micrographs ([1]; 40×, compared to control Nx rats, FIG. 6) | fibrosis and necrosis of the kidney tissue, histological micrographs ([1]; 400×, glomerulus level, FIG. 7) | serum creatinine ([1]; compared to control Nx rats, FIG. 5) | urine creatinine ([1]; day 21 to day 42, FIG. 4) | animals showing reduction of initial serum creatinine concentration ([1]; sodium caprate-treated Nx rats, FIG. 2) [%] | blood pressure [2] | histological kidney lesions score at the tubular level induced by doxorubicin (C57B1/6 mice; [3]) | serum creatinine induced by doxorubicin (C57B1/6 mice; prophylactic treatment day -3 to day 10, oral) | protection of kidney against doxorubicin toxicity, histological micrographs (C57B1/6 mice; prophylactic treatment, 400×) | serum urea induced by doxorubicin (C57B1/6 mice; prophylactic treatment) | histological kidney lesions score at the tubular level induced by doxorubicin (C57B1/6 mice; [4]) | protection of kidney against doxorubicin toxicity, histological micrographs (C57B1/6 mice; therapeutic treatment) | serum creatinine induced by doxorubicin (C57B1/6 mice; therapeutic treatment day 1 to 10, oral) | serum urea induced by doxorubicin (C57B1/6 mice; therapeutic treatment)
1 | COc1cccc2c1C(=O)c1c(O)c3c(c(O)c1C2=O)C[C@@](O)(C(=O)CO)C[C@@H]3O[C@H]1C[C@H](N)[C@H](O)[C@H](C)O1 [doxorubicin, reference compound] | induces kidney cell apoptosis, fibrosis, sclerosis, and accumulation of proteins; also recorded: induces kidney cell apoptosis, fibrosis, sclerosis and accumulation of proteins | induces significant kidney lesions | induces significant kidney lesions |  |  |  |  |  |  |  |  |  |  |  |  |  | 
2 | CCCCCCCCCC(=O)[O-].[Na+] [sodium caprate] |  |  |  | more conserved | reduces fibrosis and necrosis | significant (p=0.00006) decrease | significant (p=0.0002) increase | 80 | significant decrease | reduce the kidney lesions | inhibits the increase of serum creatinine induced by doxorubicin to a similar level observed in control mice | protects kidney against doxorubicin toxicity | inhibits the increase of serum urea induced by doxorubicin to a similar level observed in control mice | reduce the kidney lesions | protects kidney against doxorubicin toxicity | reduces the serum creatinine level | inhibits the increase of serum urea induced by doxorubicin to a similar level observed in control mice
3 | CCCCCCCCCC(=O)OCC(COC(=O)CCCCCCCCC)OC(=O)CCCCCCCCC [tricaprin] |  |  |  |  |  |  |  |  |  | reduces the kidney lesions |  | protects kidney against doxorubicin toxicity |  | reduces the kidney lesions | protects kidney against doxorubicin toxicity |  | 
